How the values were obtained:
[1] = molecular target: T1, Mitogen-activated protein kinase 1 (Homo sapiens, UniProt P28482); test: The assay was carried out in 20 mM HEPES [pH 7.5], 5 mM MgCl2, 1 mM DTT, 0.01% Tween-20, 0.05% BSA using 0.02 nM ERK2, 400 nM ERKtide peptide and 35 uM ATP (all concentrations are final in the reaction) in a total volume of 10.25 uL. A 16-point, half-log dilution series of compounds at 41x final concentration was used for generating IC50 curves. Compound dilution series were prepared in 100% DMSO. ERK2 was preincubated with compounds for 30 minutes at ambient temperature. Reaction was initiated by addition of a substrate cocktail of ERKtide peptide and ATP and was allowed to proceed for 4 hours at ambient temperature. Reaction was terminated by addition of 10 uL of a 2x stop buffer consisting of 100 mM Tris-Cl [pH 7.5], 25 mM EDTA, 0.01% Tween 20, 20 ug/mL of AlphaScreen Protein A Acceptor Beads, 20 ug/mL of Streptavidin Donor Beads (PerkinElmer, Waltham, Mass.), and 1:1000 dilution phospho-EGF Receptor (Thr669) antibody (Cat #8808, Cell Signaling Technology, Danvers, Mass.). Terminated reactions were read, after overnight incubation in the dark, on an EnVision Multilabel Plate Reader (PerkinElmer, Waltham, Mass.), with excitation and emission wavelengths set to 680 nm and 570 nm, respectively. IC50 values were determined using a four-parameter fit.
T1 sequence (P28482 whole entry): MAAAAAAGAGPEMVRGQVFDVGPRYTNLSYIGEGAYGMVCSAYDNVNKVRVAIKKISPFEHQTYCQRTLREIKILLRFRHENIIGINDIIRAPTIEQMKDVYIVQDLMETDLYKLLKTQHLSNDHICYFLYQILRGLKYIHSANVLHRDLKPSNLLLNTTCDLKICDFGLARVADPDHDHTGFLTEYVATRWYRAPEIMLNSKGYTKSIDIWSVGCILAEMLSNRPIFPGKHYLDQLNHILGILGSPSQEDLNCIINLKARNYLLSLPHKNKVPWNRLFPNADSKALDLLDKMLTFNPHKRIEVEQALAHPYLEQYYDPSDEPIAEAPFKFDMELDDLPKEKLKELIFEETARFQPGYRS

[2] = molecular target: T1, Mitogen-activated protein kinase 1; test: (§1) Kinase Assay (New): Compound potency against activated ERK2 is determined using a kinase assay that measures ERK2-catalyzed phosphorylation of biotinylated ERKtide peptide substrate ([Biotin]-AHA-KRELVEPLTPSGEAPNQALLR-[NH2], the peptide sequence derived from EGF receptor: SEQ ID NO:1). The assay is carried out in 50 mM HEPES [pH 7.5], 5 mM MgCl2, 1 mM DTT, 0.01% Tween-20, 0.05% BSA using 0.25 nM ERK2, 200 nM ERKtide peptide and 35 uM ATP (all concentrations are final in the reaction) in a total volume of 10.25 uL. A 16-point, half-log dilution series of compounds at 41x final concentration is used for generating IC50 curves. Compound dilution series are prepared in 100% DMSO. ERK2 is preincubated with compounds for 30 minutes at ambient temperature. Reaction is initiated by addition of a substrate cocktail of ERKtide peptide and ATP and is allowed to proceed for 2-3 hours at ambient temperature. Reaction is terminated by addition of 10 uL of a 2x stop buffer consisting of 100 mM Tris-Cl [pH 7.5], 25 mM EDTA, 0.01% Tween 20, 10 ug/mL of AlphaScreen Protein A Acceptor Beads, 10 ug/mL of Streptavidin Donor Beads (PerkinElmer, Waltham, Mass.), and 1.4 ug/mL phospho-EGF Receptor (Thr669) antibody (Cat #3056, Cell Signaling Technology, Danvers, Mass.). Terminated reactions are read, after overnight incubation in the dark, on an EnVision Multilabel Plate Reader (PerkinElmer, Waltham, Mass.), with excitation and emission wavelengths set to 680 nm and 570 nm, respectively. IC50 values are determined using a four-parameter fit.
[3] = molecular target: T1, Mitogen-activated protein kinase 1; test: as §1, with “AlphaScreen Assay:” for “Kinase Assay (New):”, “Mass.).” for “Mass.). Terminated reactions are read, after overnight incubation in the dark, on an EnVision Multilabel Plate Reader (PerkinElmer, Waltham, Mass.), with excitation and emission wavelengths set to 680 nm and 570 nm, respectively. IC50 values are determined using a four-parameter fit.”

CS(=O)(=O)[C@H]1CC[C@H](c2cnc(N)c(-c3ccc(C(=O)NCc4ccccc4)c(F)c3)n2)CC1
IC50 [1]: 29.7 nM
IC50 [2]: 64.4 nM

Nc1ncc([C@H]2CC[C@H](O)CC2)nc1-c1ccc(C(=O)NCc2cccc(Cl)n2)c(F)c1
IC50 [1]: 21 nM

Nc1ncc([C@H]2CC[C@@H](O)CC2)nc1-c1ccc(C(=O)NCc2cccc(Cl)n2)c(F)c1
IC50 [1]: 159 nM

Cc1nn(C(F)F)cc1-c1cnc(N)c(-c2ccc(C(=O)N[C@H](CO)c3cccc(Cl)c3)c(F)c2)c1
IC50 [1]: 0.0245 nM

Cn1cc(-c2cnc(N)c(-c3ccc(C(=O)N[C@H](CO)c4ccccc4)c(F)c3)c2F)cn1
IC50 [2]: 9.77 nM

CC(C)n1cc(-c2cnc(N)c(-c3ccc(C(=O)N[C@H](CO)c4ccccc4)c(F)c3)c2)cn1
IC50 [2]: 2.06 nM

Nc1ncc(C2CCOCC2)nc1-c1ccc(C(=O)N[C@H](CO)C2CCCCC2)c(F)c1
IC50 [2]: 26.5 nM

Nc1ncc(N2CCOCC2)cc1-c1ccc(C(=O)N[C@H](CO)c2ccccc2)c(F)c1
IC50 [3]: 20.6 nM
IC50 [1]: 1.31 nM

Cc1nn(C)cc1-c1cnc(N)c(-c2ccc(C(=O)N[C@H](CO)c3ccccc3)c(F)c2)c1
IC50 [2]: 1.41 nM

Nc1cc(-c2cc(C3CCOCC3)cnc2N)ccc1C(=O)N[C@H](CO)c1ccccc1
IC50 [3]: 5.24 nM
IC50 [1]: 3.04 nM

Cn1ccc(-c2cnc(N)c(-c3ccc(C(=O)N[C@H](CO)c4cccc(Cl)c4)c(F)c3)c2)n1
IC50 [1]: 0.0937 nM

From ChEMBL document CHEMBL3886495, “Aminoheteroaryl benzamides as kinase inhibitors” (2016)
